From patent US11180487B2, “Substituted cyanoindoline derivatives as NIK inhibitors” (Janssen Pharmaceutica NV, priority 2016, dated 2021)
Like-named read-outs stand apart in the source and are kept apart here.

How the values were obtained:
[1] = target: recombinant human NF-kappaB-inducing kinase (NIK/MAP3K14) (Homo sapiens, UniProt Q99558); test: Inhibition of auto-phosphorylation of recombinant human NIK/MAP3K14 activity (AlphaScreen), Biological Assay A; type: biochemical; settings: averaged values over all measurements on all batches
How it was run: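 AlphaScreen detection with anti-phospho-IKK Ser176/180 antibody plus Protein A acceptor/glutathione donor beads after 1 h, 25 °C reaction of 0.2 nM GST-tagged kinase, 25 μM ATP and compound. Buffer: 50 mM Tris pH 7.5, MgCl2, EGTA, DTT, vanadate; 1% DMSO. IC50 fitted sigmoidally to % inhibition.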

[2] = system: P-IKKα levels in L363 (NIK translocated multiple myeloma) cells; test: Effect of compounds on P-IKKα levels in L363 cells (Mesoscale sandwich immuno-assay), Biological Assay B; type: cell-based, human; settings: 2 hr treatment, averaged values, read-out: Inhibition of pIKKα_L-363 (IC50 (nM))
Procedure: Effect of Compounds on P-IKKα Levels in L363 (NIK Translocated Multiple Myeloma) Cells
All compounds tested were dissolved in DMSO and further dilutions were made in culture medium. Final DMSO concentration was 1% (v/v) in cell assays. The human L363 cells (ATCC) were cultured in RPMI 1640 medium supplemented with GlutaMax and 10% fetal calf serum (PAA). Cells were routinely maintained at densities of 0.2×10^6 cells per ml-1×10^6 cells per ml at 37° C. in a humidified 5% CO2 atmosphere. Cells were passaged twice a week splitting back to obtain the low density. Cells were seeded in 96 well plates (Nunc 167008) at 2×10^6 per ml media in a volume of 75 μl per well plus 25 μl 1 μg/ml recombinant human B-cell activating factor (BAFF/BLyS/TNFSF13B). Seeded cells were incubated at 37° C. in a humidified 5% CO2 atmosphere for 24 hr. Drugs and/or solvents were added (20 μl) to a final volume of 120 μl. Following 2 hr treatment plates were removed from the incubator and cell lysis was achieved by the addition of 30 μl 5× lysis buffer followed by shaking on a plate shaker at 4° C. for 10 min. At the end of this incubation lysed cells were centrifuged at 800×g for 20 min at 4° C. and the lysate was assessed for P-IKKα levels by sandwich immuno-assay carried out in anti-rabbit antibody coated Mesoscale plates. Within an experiment, the results for each treatment were the mean of 2 replicate wells. For initial screening purposes, compounds were tested using an 8 point dilution curve (serial 1:3 dilutions). For each experiment, controls (containing MG132 and BAFF but no test drug) and a blank incubation (containing MG132 and BAFF and 10 μM ADS125117, a test concentration known to give full inhibition) were run in parallel. The blank incubation value was subtracted from all control and sample values. To determine the IC50 a sigmoidal curve was fitted to the plot of % inhibition of control P-IKKα levels versus Log10 compound concentration.
Note: Compounds 237 and 238 were tested at a maximum top concentration of 823 nM.

[3] = system: JJN-3 (NIK translocated) multiple myeloma cells; test: Antiproliferative activity on JJN-3 multiple myeloma cells (CellTiter-Glo, 96 hr), Biological Assay C; type: cell-based, human; settings: JJN-3 (NIK translocated) cells, averaged values, read-out: JJN-3 Proliferation inhibition (IC50 (nM))
How it was run: (§1)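 Growth read-out was CellTiter-Glo luminescence after 96 h compound exposure, given as percent of no-drug control after subtracting a blank of cells read at dosing. Compounds ran as 9-point serial 1:3 dilutions in 0.3% DMSO, duplicate wells, on JJN-3 (15000/well) or KMS12-BM (20000/well) cells in RPMI 1640/10% FCS.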

[4] = system: KMS12-BM (NIK WT) multiple myeloma cells; test: Antiproliferative activity on KMS12-BM multiple myeloma cells (CellTiter-Glo, 96 hr), Biological Assay C; type: cell-based, human; settings: averaged values, read-out: KMS-12 Proliferation inhibition (IC50 (nM))
How it was run: as §1

recombinant human NF-kappaB-inducing kinase (NIK/MAP3K14), sequence (Q99558 whole entry): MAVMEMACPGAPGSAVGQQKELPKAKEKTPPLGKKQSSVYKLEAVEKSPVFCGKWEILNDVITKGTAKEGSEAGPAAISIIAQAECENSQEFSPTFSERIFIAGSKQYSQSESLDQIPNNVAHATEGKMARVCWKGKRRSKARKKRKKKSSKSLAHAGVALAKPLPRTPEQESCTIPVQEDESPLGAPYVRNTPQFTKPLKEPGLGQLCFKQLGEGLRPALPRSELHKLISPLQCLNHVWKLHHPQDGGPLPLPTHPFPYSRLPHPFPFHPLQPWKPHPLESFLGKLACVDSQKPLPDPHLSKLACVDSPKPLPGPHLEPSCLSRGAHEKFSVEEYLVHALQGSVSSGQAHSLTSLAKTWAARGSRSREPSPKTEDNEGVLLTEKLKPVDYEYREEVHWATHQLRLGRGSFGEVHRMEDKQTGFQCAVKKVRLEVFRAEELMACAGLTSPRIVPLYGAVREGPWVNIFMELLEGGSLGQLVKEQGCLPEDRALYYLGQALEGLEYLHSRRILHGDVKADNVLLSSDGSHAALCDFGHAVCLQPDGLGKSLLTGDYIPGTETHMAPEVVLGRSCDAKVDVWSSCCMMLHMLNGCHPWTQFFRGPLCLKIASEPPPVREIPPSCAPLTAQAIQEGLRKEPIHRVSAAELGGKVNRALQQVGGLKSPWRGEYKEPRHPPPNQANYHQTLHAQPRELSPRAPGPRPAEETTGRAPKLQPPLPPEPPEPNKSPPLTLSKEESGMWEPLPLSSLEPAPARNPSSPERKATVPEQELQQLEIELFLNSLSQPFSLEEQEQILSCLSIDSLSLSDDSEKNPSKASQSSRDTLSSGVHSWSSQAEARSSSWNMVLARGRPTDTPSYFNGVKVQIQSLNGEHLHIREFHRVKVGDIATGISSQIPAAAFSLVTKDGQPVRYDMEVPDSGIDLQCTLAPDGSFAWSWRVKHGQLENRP

Row | IC50 [1] [nM] | IC50 ([2]; Homo sapiens, L-363, 2 h) [nM] | melting point [°C] | IC50 ([3]; Homo sapiens, JJN-3, 96 h) [nM] | IC50 ([4]; Homo sapiens, KMS-12-BM, 96 h) [nM] | IC50 [2] [nM] | IC50 [3] [nM] | IC50 [4] [nM] | Compound
1 | 22.4 | 427 | 122 |  |  |  |  |  | Cc1ccc(C(C)(C)O)cc1Nc1nccc(-c2cc(C#N)c3c(c2)[C@@](C)(CO)CN3)n1 [Compound 151]
2 | 13.8 | 4070 | 122 |  |  |  |  |  | Cc1ccc(-c2ncc[nH]2)cc1Nc1nccc(-c2cc(C#N)c3c(c2)[C@@](C)(CO)CN3)n1.Cl [Compound 191]
3 | 2.8 | ~1200 | 220 |  |  |  |  |  | Cc1c(Nc2nccc(-c3cc(C#N)c4c(c3)[C@@](C)(CO)CN4)n2)cc(C#N)cc1C(=O)O [Compound 201]
4 | 25.1 | ~4470 | 168 |  |  |  |  |  | Cc1ccc(C#N)cc1Nc1nccc(-c2cc(C#N)c3c(c2)[C@@](C)(CNS(C)(=O)=O)CN3)n1 [Compound 212]
5 | 30.9 | 1620 | 239 |  |  |  |  |  | Cc1ccc(-c2cncn2C)cc1Nc1nccc(-c2cc(C#N)c3c(c2)[C@@](C)(CO)CN3)n1 [Compound 189]
6 | 20.4 | 407 | 245 |  |  |  |  |  | Cc1ccc(C(=O)N2CCN(C)CC2)cc1Nc1nccc(-c2cc(C#N)c3c(c2)[C@@](C)(CO)CN3)n1 [Compound 161]
7 | 3.7 | 44.7 | 194 |  |  |  |  |  | C[C@]1(CO)CNc2c(C#N)cc(-c3ccnc(Nc4cc(C#N)ccc4OCCCN)n3)cc21 [Compound 180]
8 | 26.9 | 288 | 194 |  |  |  |  |  | Cc1ccc(C#N)cc1Nc1nccc(-c2cc(C#N)c3c(c2)[C@@](C)(CF)CN3)n1 [Compound 164]
9 | 16.2 | 3160 | 160 |  |  |  |  |  | CC(=O)NC[C@@]1(C)CNc2c(C#N)cc(-c3ccnc(Nc4cc(C#N)ccc4C)n3)cc21 [Compound 211]
10 | 2510 | > 10000 | 115 |  |  |  |  |  | COCCOc1ccc(P(C)(C)=O)cc1Nc1nccc(-c2cc(C#N)c3c(c2)[C@@](C)(CO)CN3)n1 [Compound 5]
11 | 32.4 | 646 | 181 |  |  |  |  |  | Cc1ccc(CN2CCC(O)CC2)c(Nc2nccc(-c3cc(C#N)c4c(c3)[C@@](C)(CO)CN4)n2)c1 [Compound 221]
12 | 1.5 | 2.9 |  | 199 | > 10000 |  |  |  | Cc1ccc(CO)cc1Nc1nccc(-c2cc(C#N)c3c(c2)C(C)(CO)CN3)n1 (centres unmarked) [Compound 215]
13 | 4.6 |  |  |  |  | 21.4 | 741 | > 10000 | CN1CC(F)C(Oc2ccc(C#N)cc2Nc2nccc(-c3cc(C#N)c4c(c3)[C@@](C)(CO)CN4)n2)C1 (some centres unmarked) [Compound 233]
14 | 2.5 | 11.5 |  | 7 | 631 |  |  |  | COc1cc(N2CCC(N(C)C)CC2)c(Cl)cc1Nc1nccc(-c2cc(C#N)c3c(c2)C(C)(CO)CN3)n1 (centres unmarked) [Compound 22]
15 | 4.7 | 8.9 |  | 523 | > 10000 |  |  |  | [2H]C([2H])(O)c1cc(Nc2nccc(-c3cc(C#N)c4c(c3)[C@@](C)(CO)CN4)n2)c(C)cc1F [Compound 148]
16 | 7.6 | 5.3 |  | 22 | > 10000 |  |  |  | COc1cc(OCC(=O)N(C)C)c(Cl)cc1Nc1nccc(-c2cc(C#N)c3c(c2)C(C)(C)CN3)n1 [Compound 82]
17 | 4.2 | 20.9 |  | 759 | > 10000 |  |  |  | CNC(=O)c1ccc(C)c(Nc2nccc(-c3cc(C#N)c4c(c3)[C@@](C)(CO)CN4)n2)c1 [Compound 4]

Row | IC50 [1] [nM] | IC50 ([2]; Homo sapiens, L-363, 2 h) [nM] | melting point [°C] | IC50 ([3]; Homo sapiens, JJN-3, 96 h) [nM] | IC50 ([4]; Homo sapiens, KMS-12-BM, 96 h) [nM] | IC50 [2] [nM] | IC50 [3] [nM] | IC50 [4] [nM] | Compound
18 | 7.1 | 93.3 |  | 35 | 1180 |  |  |  | CCN1CCN(Cc2cc(OC)c(Nc3nccc(-c4cc(C#N)c5c(c4)C(C)(C)CN5)n3)cc2Cl)CC1 [Compound 87]
19 | 10.2 | 15.1 |  | 115 | > 10000 |  |  |  | CCCCCc1cc(S(C)(=O)=O)ccc1Nc1nccc(-c2cc(C#N)c3c(c2)[C@@](C)(CO)CN3)n1 [Compound 3]
20 | 3.8 | 5.9 |  | 91 | > 10000 |  |  |  | CCC(=O)NCC#Cc1cc(C)c(Nc2nccc(-c3cc(C#N)c4c(c3)[C@@](C)(CO)CN4)n2)cc1C#N [Compound 176]
21 | 3.6 | 33.9 |  | 12 | 589 |  |  |  | CN1CCC(Oc2ccc(Cl)cc2Nc2nccc(-c3cc(C#N)c4c(c3)C(C)(CO)CN4)n2)CC1 (centres unmarked) [Compound 25]
22 | 5.4 | 91.2 |  | 1230 | > 10000 |  |  |  | Cc1ccc(C(=O)NCCN2CCCC2)cc1Nc1nccc(-c2cc(C#N)c3c(c2)[C@@](C)(CO)CN3)n1 [Compound 158]
23 | 6.3 | 7.7 |  | 46 | > 10000 |  |  |  | CN1CCC(Oc2ccc(C#N)cc2Nc2nccc(-c3cc(C#N)c4c(c3)[C@@](C)(CO)CN4)n2)C(F)C1 (some centres unmarked) [Compound 230]
24 | 5.5 | 19.5 |  | 288 | > 10000 |  |  |  | CNC(=O)c1ccc(OC(C)C)c(Nc2nccc(-c3cc(C#N)c4c(c3)[C@@](C)(CO)CN4)n2)c1 [Compound 162]
25 | 5.8 | ~1170 |  | ~10000 | > 10000 |  |  |  | Cc1ccc(C#N)cc1Nc1nccc(-c2cc(C#N)c3c(c2)[C@](C)(COS(=O)(=O)O)CN3)n1 [Compound 144]
26 | 5.1 | 7.8 |  | 195 | > 10000 |  |  |  | CC(=O)NCCCOc1ccc(C#N)cc1Nc1nccc(-c2cc(C#N)c3c(c2)[C@@](C)(CO)CN3)n1 [Compound 181]
27 | 0.8 | 1.9 |  | 16 | 1480 |  |  |  | Cc1c(NC(=O)C2CCN(C)CC2)cc(Cl)cc1Nc1nccc(-c2cc(C#N)c3c(c2)[C@@](C)(CO)CN3)n1 [Compound 68]
28 | 7.8 |  |  |  |  | 12.3 | 89 | > 10000 | CN1CCC(Oc2ccc(C#N)cc2Nc2nccc(-c3cc(C#N)c4c(c3)[C@@](C)(CO)CN4)n2)C(F)C1 (some centres unmarked) [Compound 231]
29 | 0.8 | 2.2 |  | 91 | > 10000 |  |  |  | [2H]C([2H])(O)c1ccc(C)c(Nc2nccc(-c3cc(C#N)c4c(c3)[C@@](C)(CO)CN4)n2)c1 [Compound 150]
30 | 11.2 | 2.1 |  | 102 | ~4790 |  |  |  | Cc1ccc(C#N)cc1Nc1nccc(-c2cc(C#N)c3c(c2)[C@@](C)(COC(=O)[C@H](C)N)CN3)n1 [Compound 138]
31 | 1.3 | 6.3 |  | 240 | > 10000 |  |  |  | C[C@]1(CO)CNc2c(C#N)cc(-c3ccnc(Nc4cc(C#N)ccc4CO)n3)cc21 [Compound 153]
32 | 3.9 | 1.2 |  | 302 | > 10000 |  |  |  | Cc1ccc(C#N)cc1Nc1ncc(F)c(-c2cc(C#N)c3c(c2)[C@@](C)(CO)CN3)n1 [Compound 147]
33 | 2.7 | 7.9 |  | 87 | 2040 |  |  |  | Cc1cc(C(=O)NC2CCOCC2)ccc1Nc1nccc(-c2cc(C#N)c3c(c2)C(C)(C)CN3)n1 [Compound 78]
34 | 5.5 | 11.5 |  |  | > 10000 |  | 282 |  | CN1CC(F)C(Oc2ccc(C#N)cc2Nc2nccc(-c3cc(C#N)c4c(c3)[C@@](C)(CO)CN4)n2)C1 (some centres unmarked) [Compound 232]
